Experimental data taken from patent US20110176998A1, “IMAGING AND THERAPY OF VIRUS-ASSOCIATED TUMORS” (THE JOHNS HOPKINS UNIVERSITY, priority 2007, published 2011).

Assays:
EBV-TK = test: immunoblot for EBV-TK expression; type: cell-based, Epstein-Barr virus; settings: Western blot
Procedure: To detect expression of the EBV-TK or EBV-ZTA, total cell protein was first extracted by treating cells with lysis buffer (0.05 M Tris, pH 7.6, 0.15 M NaCl, 1% triton-X 100, 2 mM EDTA) containing protease inhibitors for 10 minutes at 4° C. The following reagents were added to 1 mL of lysis buffer: 2 μL leupeptin (5 mg/mL), 1 μL 0.2 M Na3VO4, 1 μL NaF, 1 μL aprotinin (10 mg/ml), 1 μL, pepstatin (2 mM), and 10 μL PMSF (100 mM) for 10 minutes at 4° C. Following centrifugation, the supernatant was collected and stored at −80° C. Protein concentration was determined with the BCA Protein Assay Kit (Pierce, Rockford, Ill.) according to the manufacturer's instructions. A 10 μg aliquot of total cellular protein was fractionated on a 7.5% SDS-polyacrylamide gel. Proteins were transferred to PROTRAN nitrocellulose membrane (Schleicher & Schuell, Keene, N.H.). The membranes were blocked with 5% blotting grade non-fat dry milk (Bio-rad, Hercules, Calif.) in PBS with 0.1% TWEEN-20 (PBS-T) at 4° C. overnight. […] The membranes were washed twice and proteins were detected with ECL Western Blotting Detection reagents (Amersham Pharmacia Biotech). […]

Zta promoter = type: cell-based, Epstein-Barr virus; settings: AGS cells
[1] = test system: EBV viral DNA copy number; test: real-time PCR for EBV viral DNA copy number (viral replication); type: cell-based, Epstein-Barr virus; settings: for EBV viral replication (DNA copy number): LCL and SNU719 cells, 1 μM, 48 hours
Procedure: Genomic DNA from treated cells were extracted with the QIAamp DNA mini kit (Qiagen, CA) according to the manufacturer's instructions. PCRs were set up in a volume of 50 μL with a TaqMan PCR core reagent kit (Perkin-Elmer Corp., Branchburg, N.J.). Fluorescent probes were custom synthesized by Perkin-Elmer Applied Biosystems. PCR primers were synthesized by Gibco BRL (Frederick, Md.). Each reaction contained 5 μL of 10× buffer A (4 mM MgCl2), amplification primers (300 nM), fluorescent probe (25 nM), dATP, dCTP, and dGTP (200 μM each), dUTP (400 uM), 1.25 U of AmpliTaq Gold, and 0.5 U of AmpErase uracil N-glycosylase. Extracted genomic DNA was used for amplification. DNA amplification was carried out in a 96-well reaction plate in a Perkin-Elmer Applied Biosystems 7700 sequence detector. Each sample was analyzed in duplicate, and multiple negative water blanks were included in each analysis. A calibration curve was run in parallel and in duplicate with each analysis, with DNA extracted from the EBV-positive cell line Namalwa as a standard.
The EBV genome was quantified by real-time PCR with the ICycler system (Biorad, Hercules, Calif.). Template DNA was extracted with a mini blood DNA Kit (Qiagen, Valencia, Calif.). […]. A calibration curve was run in parallel and in duplicate with each analysis, using DNA extracted from the diploid EBV-positive cell line Namalwa containing two integrated viral genomes per cell as a standard. Amplification data were collected with an MyiQ single color real-time PCR Detector (Biorad) and analyzed with the MyiQ software developed by Biorad.

[2] = test system: EBV-positive lymphoblastoid cells (LCL); test: immunofluorescence assay for BZLF1 protein in LCL cells; type: cell-based, Epstein-Barr virus; settings: 1 μM, 48 hours
Procedure: LCL cells were treated with 1 μM Ara-c for 48 hours. The cells were then washed with PBS, resuspended, and plated on polylysine glass slides. Indirect immunofluorescence assays and fluorescence microscopy were performed. The slides were fixed in methanol at −20° C., washed with PBS, then incubated in primary antibody anti-ZTA (1:200) (Argene), washed with PBS, followed by secondary antibody incubation of donkey rhodamine-conjugated IgG (Jackson Pharmaceuticals, west Grove, Pa.). Mounting solution with 4′,6′-diamidino-2-phenylindole (DAPI) (Vector Shield) was used to mark the nucleus of the cell. Slides were then observed and photographed with 40× objectives on a E800 microscope (NIKON) with CCD camera (Princeton Instruments) using Metamorph software (Universial Imaging-Molecular Devices).

BZLF1 protein (ZTA) = test: Western blot / immunoblot for ZTA (BZLF1 protein) in EBV positive cell lines; type: cell-based, Epstein-Barr virus
Procedure: To detect expression of the EBV-TK or EBV-ZTA, total cell protein was first extracted by treating cells with lysis buffer (0.05 M Tris, pH 7.6, 0.15 M NaCl, 1% triton-X 100, 2 mM EDTA) containing protease inhibitors for 10 minutes at 4° C. The following reagents were added to 1 mL of lysis buffer: 2 μL leupeptin (5 mg/mL), 1 μL 0.2 M Na3VO4, 1 μL NaF, 1 μL aprotinin (10 mg/ml), 1 μL, pepstatin (2 mM), and 10 μL PMSF (100 mM) for 10 minutes at 4° C. Following centrifugation, the supernatant was collected and stored at −80° C. Protein concentration was determined with the BCA Protein Assay Kit (Pierce, Rockford, Ill.) according to the manufacturer's instructions. A 10 μg aliquot of total cellular protein was fractionated on a 7.5% SDS-polyacrylamide gel. Proteins were transferred to PROTRAN nitrocellulose membrane (Schleicher & Schuell, Keene, N.H.). The membranes were blocked with 5% blotting grade non-fat dry milk (Bio-rad, Hercules, Calif.) in PBS with 0.1% TWEEN-20 (PBS-T) at 4° C. overnight. The membranes were then washed with PBS-T twice followed by incubation with 1/1,000-diluted rabbit anti-TK sera from a rabbit immunized with a synthetic EBV-TK peptide ([…]) or anti-ZTA monoclonal antibody (Argene, North Massapequa, N.Y.) at room temperature for 1 hour. After washing, the membranes were incubated with HRP-conjugated goat anti-rabbit IgG antibodies or HRP-conjugated goat anti-mouse IgG antibodies (Amersham Pharmacia Biotech, Piscataway, N.J.) at a 1/5,000 dilution in PBS-T at room temperature for 1 hour. The membranes were washed twice and proteins were detected with ECL Western Blotting Detection reagents (Amersham Pharmacia Biotech). The membranes were exposed to X-OMAT film (Kodak, Rochester, N.Y.) at room temperature.
For lytic induction studies, cells were seeded at 10^6/ml, and treated with test compounds for 48 hours. Control untreated cells were incubated in parallel.
Cells were washed with PBS twice. Total cellular protein was extracted with lysis buffer. Proteins were electrophoresed in polyacrylamide and then transferred onto a PROTRAN nitrocellulose membrane (Schleicher&Schuell, Keene, N.H.). Blots were probed with primary antibody (Ab) overnight at 4° C. HRP-conjugated secondary Ab was added after washing and detected by an enhanced chemiluminescence system (ECL) (Amersham). The following antibodies were used: anti-ZTA (Argene), anti-f3-actin (Sigma), anti-mouse (Sigma).

AGS-BX1 cells = test: GFP assay in AGS-BX1 cells; settings: 1 μM

SMILES	EBV early lytic gene TK expression (EBV-TK)	Zta promoter luciferase activity (Zta promoter)	EBV viral replication (DNA copy number) [1]	EBV viral replication (DNA copy number) ([1]; listed as Ara-c)	LCL cells induced into lytic infection [2]	BZLF1 protein (ZTA) expression (BZLF1 protein (ZTA); AKATA(-BX1), LCL and SNU719 cells, 1 μM, 48 hours)	GFP signal (AGS-BX1 cells)	induction of BZLF1 promoter (Zta promoter; 1 μM)	increase of EBV viral DNA copy number ([1]; LCL cells and Rael cells, 1 μM for 48 hours)	ZTA expression (BZLF1 protein (ZTA); LCL cells and AKATA cells)
Nc1ccn([C@@H]2O[C@H](CO)[C@@H](O)[C@@H]2O)c(=O)n1 [Cytarabine]	induced	induced	did not induce	not amplified	40%	induced				
COC(=O)Nc1nc2ccc(C(=O)c3ccccc3)cc2[nH]1 [Mebendazole]							induced GFP signal	induced	20 fold	induced
